Experimental data: patent US8247211B2, “Glycopeptide antibiotics” (American Cyanamid Company, priority 2001, dated 2012)

What was measured:
Assay in all cases: In vitro antibacterial evaluation: minimum inhibitory concentration (MIC), broth dilution method
Format in all cases: cell-based
Settings in all cases: 18 hours at 35° C.
Enterococcus sp. = tested on: Enterococcus sp.
Method in brief: (§1)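 Inoculum: 5×10^5 CFU/mL. Range: 64-0.06 μg/mL. Medium: Muller-Hinton II […]; NCCLS M7-A2 broth dilution. Endpoint: lowest concentration inhibiting growth. Strains include methicillin-, penicillin- and/or vancomycin-resistant clinical isolates.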

Escherichia coli = tested on: Escherichia coli
Method in brief: as §1

Staphylococcus sp. = tested on: Staphylococcus sp.
Method in brief: as §1

Streptococcus sp. = tested on: Streptococcus sp.
Method in brief: as §1

β-O-[(Heptylamino)carbonyl]-cyclo[glycyl-β-methylphenylalanyl-O-(4-O-hexopyranosylhexopyranosyl)tyrosyl-3-(2-iminoimidazolidin-4-yl)seryl-3-(3-hexopyranosyl-2-iminoimidazolidin-4-yl)serylseryl] [Example 253a]
32 µg/mL: MIC Enterococcus faecalis (GC 3059) (Enterococcus sp.; Enterococcus faecalis (GC 3059)) | MIC Enterococcus faecalis (GC 4552) (Enterococcus sp.; Enterococcus faecalis (GC 4552)) | MIC Enterococcus faecalis (GC 4554) (Enterococcus sp.; Enterococcus faecalis (GC 4554)) | MIC Enterococcus faecalis (GC 3059) (Enterococcus sp.; broth dilution, strain GC 3059) | MIC Enterococcus faecalis (GC 4552) (Enterococcus sp.; broth dilution, strain GC 4552) | MIC Enterococcus faecalis (GC 4554) (Enterococcus sp.; broth dilution, strain GC 4554)
0.25 µg/mL: MIC Streptococcus pneumoniae (GC 1894) (Streptococcus sp.; Streptococcus pneumoniae (GC 1894)) | MIC Streptococcus pneumoniae (GC 1894) (Streptococcus sp.; broth dilution, strain GC 1894)
2 µg/mL: MIC Escherichia coli (GC 4560) (Escherichia coli; Escherichia coli (GC 4560)) | MIC Staphylococcus aureus (GC 3051) (Staphylococcus sp.; Staphylococcus aureus (GC 3051)) | MIC Staphylococcus aureus (GC 4545) (Staphylococcus sp.; Staphylococcus aureus (GC 4545)) | MIC Staphylococcus aureus-SMITH (GC 4543) (Staphylococcus sp.; Staphylococcus aureus-SMITH (GC 4543)) | MIC Staphylococcus aureus (GC 3051) (Staphylococcus sp.; broth dilution, strain GC 3051) | MIC Staphylococcus aureus-SMITH (GC 4543) (Staphylococcus sp.; broth dilution, strain GC 4543) | MIC Staphylococcus aureus (GC 4545) (Staphylococcus sp.; broth dilution, strain GC 4545)
0.5 µg/mL: MIC Streptococcus pneumoniae (ATCC 6301) (Streptococcus sp.; Streptococcus pneumoniae (ATCC 6301)) | MIC Streptococcus pneumoniae (GC 4565) (Streptococcus sp.; Streptococcus pneumoniae (GC 4565)) | MIC Streptococcus pneumoniae (ATCC 6301) (Streptococcus sp.; broth dilution, strain ATCC 6301) | MIC Streptococcus pneumoniae (GC 4565) (Streptococcus sp.; broth dilution, strain GC 4565)
1 µg/mL: MIC Coagulase Negative Staphylococcus (GC 4549) (Staphylococcus sp.; Coagulase Negative Staphylococcus (GC 4549)) | MIC Coagulase Negative Staphylococcus (GC 6257) (Staphylococcus sp.; Coagulase Negative Staphylococcus (GC 6257)) | MIC Coagulase Negative Staphylococcus (GC 4549) (Staphylococcus sp.; broth dilution, strain GC 4549) | MIC Coagulase Negative Staphylococcus (GC 6257) (Staphylococcus sp.; broth dilution, strain GC 6257) | MIC Streptococcus agalactiae (GC 4564) (Streptococcus sp.; Streptococcus agalactiae (GC 4564)) | MIC Streptococcus pyogenes (GC 4563) (Streptococcus sp.; Streptococcus pyogenes (GC 4563)) | MIC Streptococcus pyogenes (GC 4563) (Streptococcus sp.; broth dilution, strain GC 4563) | MIC Streptococcus agalactiae (GC 4564) (Streptococcus sp.; broth dilution, strain GC 4564)
4 µg/mL: MIC Enterococcus faecium (GC 4557) (Enterococcus sp.; Enterococcus faecium (GC 4557)) | MIC Enterococcus faecium (GC 4557) (Enterococcus sp.; broth dilution, strain GC 4557) | MIC Coagulase Negative Staphylococcus (GC 4547) (Staphylococcus sp.; Coagulase Negative Staphylococcus (GC 4547)) | MIC Coagulase Negative Staphylococcus (GC 4548) (Staphylococcus sp.; Coagulase Negative Staphylococcus (GC 4548)) | MIC Staphylococcus aureus (ATCC 29213) (Staphylococcus sp.; Staphylococcus aureus (ATCC 29213)) | MIC Staphylococcus aureus (GC 1131) (Staphylococcus sp.; Staphylococcus aureus (GC 1131)) | MIC Staphylococcus aureus (GC 3053) (Staphylococcus sp.; Staphylococcus aureus (GC 3053)) | MIC Staphylococcus aureus (GC 4541) (Staphylococcus sp.; Staphylococcus aureus (GC 4541)) | MIC Staphylococcus aureus (GC 4542) (Staphylococcus sp.; Staphylococcus aureus (GC 4542)) | MIC Staphylococcus aureus (GC 4544) (Staphylococcus sp.; Staphylococcus aureus (GC 4544)) | MIC Staphylococcus haemolyticus (GC 4546) (Staphylococcus sp.; Staphylococcus haemolyticus (GC 4546)) | MIC Staphylococcus aureus (ATCC 29213) (Staphylococcus sp.; broth dilution, strain ATCC 29213) | MIC Staphylococcus aureus (GC 1131) (Staphylococcus sp.; broth dilution, strain GC 1131) | MIC Staphylococcus aureus (GC 3053) (Staphylococcus sp.; broth dilution, strain GC 3053) | MIC Staphylococcus aureus (GC 4541) (Staphylococcus sp.; broth dilution, strain GC 4541) | MIC Staphylococcus aureus (GC 4542) (Staphylococcus sp.; broth dilution, strain GC 4542) | MIC Staphylococcus aureus (GC 4544) (Staphylococcus sp.; broth dilution, strain GC 4544) | MIC Staphylococcus haemolyticus (GC 4546) (Staphylococcus sp.; broth dilution, strain GC 4546) | MIC Coagulase Negative Staphylococcus (GC 4547) (Staphylococcus sp.; broth dilution, strain GC 4547) | MIC Coagulase Negative Staphylococcus (GC 4548) (Staphylococcus sp.; broth dilution, strain GC 4548)
16 µg/mL: MIC Enterococcus avium (GC 4558) (Enterococcus sp.; Enterococcus avium (GC 4558)) | MIC Enterococcus faecalis (ATCC 29212) (Enterococcus sp.; Enterococcus faecalis (ATCC 29212)) | MIC Enterococcus faecalis (GC 2242) (Enterococcus sp.; Enterococcus faecalis (GC 2242)) | MIC Enterococcus faecalis (GC 2691) (Enterococcus sp.; Enterococcus faecalis (GC 2691)) | MIC Enterococcus faecalis (GC 4553) (Enterococcus sp.; Enterococcus faecalis (GC 4553)) | MIC Enterococcus faecalis (GC 6189) (Enterococcus sp.; Enterococcus faecalis (GC 6189)) | MIC Enterococcus faecium (GC 2243) (Enterococcus sp.; Enterococcus faecium (GC 2243)) | MIC Enterococcus faecium (GC 4556) (Enterococcus sp.; Enterococcus faecium (GC 4556)) | MIC Enterococcus faecalis (ATCC 29212) (Enterococcus sp.; broth dilution, strain ATCC 29212) | MIC Enterococcus faecalis (GC 2242) (Enterococcus sp.; broth dilution, strain GC 2242) | MIC Enterococcus faecium (GC 2243) (Enterococcus sp.; broth dilution, strain GC 2243) | MIC Enterococcus faecalis (GC 2691) (Enterococcus sp.; broth dilution, strain GC 2691) | MIC Enterococcus faecalis (GC 4553) (Enterococcus sp.; broth dilution, strain GC 4553) | MIC Enterococcus faecium (GC 4556) (Enterococcus sp.; broth dilution, strain GC 4556) | MIC Enterococcus avium (GC 4558) (Enterococcus sp.; broth dilution, strain GC 4558) | MIC Enterococcus faecalis (GC 6189) (Enterococcus sp.; broth dilution, strain GC 6189)
>64 µg/mL: MIC Escherichia coli (ATCC 25922) (Escherichia coli; Escherichia coli (ATCC 25922)) | MIC Escherichia coli (GC 4559) (Escherichia coli; Escherichia coli (GC 4559))
8 µg/mL: MIC Coagulase Negative Staphylococcus (GC 4551) (Staphylococcus sp.; Coagulase Negative Staphylococcus (GC 4551)) | MIC Coagulase Negative Staphylococcus (GC 4551) (Staphylococcus sp.; broth dilution, strain GC 4551)
